The source of these data is ChEMBL document CHEMBL4765247, “Novel mouse GABA uptake inhibitors with enhanced inhibitory activity toward mGAT3/4 and their effect on pain threshold in mice” (Eur J Med Chem, 2020).

Format in all cases: cell-based
In test [1] the target is Sodium- and chloride-dependent GABA transporter 1 (Homo sapiens, UniProt P30531). As to the kind of experiment: Inhibition of human […] expressed in tsA201 cells assessed as inhibition of [3H]GABA uptake by liquid scintillation method.
Test [2] has as its target T1, Sodium- and chloride-dependent GABA transporter 2 (Homo sapiens, UniProt Q9NSD5).
T1 sequence (Q9NSD5 whole entry): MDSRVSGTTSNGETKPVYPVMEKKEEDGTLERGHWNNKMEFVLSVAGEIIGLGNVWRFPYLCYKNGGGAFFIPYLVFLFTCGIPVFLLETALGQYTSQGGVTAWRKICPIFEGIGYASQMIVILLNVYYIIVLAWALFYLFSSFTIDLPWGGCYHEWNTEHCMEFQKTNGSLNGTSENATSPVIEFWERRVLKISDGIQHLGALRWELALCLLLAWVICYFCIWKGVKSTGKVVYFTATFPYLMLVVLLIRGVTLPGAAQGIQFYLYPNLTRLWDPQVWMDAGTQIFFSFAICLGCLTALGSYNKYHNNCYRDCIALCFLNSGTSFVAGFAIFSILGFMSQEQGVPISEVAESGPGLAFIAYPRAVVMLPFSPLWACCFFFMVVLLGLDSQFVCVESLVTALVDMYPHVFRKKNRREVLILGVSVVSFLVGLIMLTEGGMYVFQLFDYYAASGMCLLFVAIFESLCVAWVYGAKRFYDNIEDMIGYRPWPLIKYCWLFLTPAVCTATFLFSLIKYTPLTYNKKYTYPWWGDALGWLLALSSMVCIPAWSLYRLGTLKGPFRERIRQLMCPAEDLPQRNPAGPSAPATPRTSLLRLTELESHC
As to the kind of experiment: Inhibition of human […] expressed in tsA201 cells assessed as inhibition of [3H]GABA uptake by liquid scintillation method.

Test [3] has as its target T2, Sodium- and chloride-dependent GABA transporter 3 (Homo sapiens, UniProt P48066).
T2 sequence (P48066 whole entry): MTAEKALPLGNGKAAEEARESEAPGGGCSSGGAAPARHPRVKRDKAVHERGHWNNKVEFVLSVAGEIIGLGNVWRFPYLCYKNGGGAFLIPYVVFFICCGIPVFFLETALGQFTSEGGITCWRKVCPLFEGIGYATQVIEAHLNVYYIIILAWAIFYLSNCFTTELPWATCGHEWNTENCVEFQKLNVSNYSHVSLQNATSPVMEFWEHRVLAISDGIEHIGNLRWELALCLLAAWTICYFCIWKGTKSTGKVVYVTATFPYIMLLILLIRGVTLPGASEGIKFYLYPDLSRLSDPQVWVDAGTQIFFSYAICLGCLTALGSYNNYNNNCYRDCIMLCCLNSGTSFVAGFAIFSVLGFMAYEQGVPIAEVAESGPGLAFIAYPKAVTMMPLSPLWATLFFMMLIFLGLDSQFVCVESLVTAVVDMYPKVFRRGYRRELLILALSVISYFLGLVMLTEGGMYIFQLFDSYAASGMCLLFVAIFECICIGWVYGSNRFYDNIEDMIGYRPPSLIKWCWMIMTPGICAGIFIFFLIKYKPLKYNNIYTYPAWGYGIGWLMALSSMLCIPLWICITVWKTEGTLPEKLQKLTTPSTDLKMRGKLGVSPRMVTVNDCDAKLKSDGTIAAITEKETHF
As to the kind of experiment: Inhibition of human […] expressed in tsA201 cells assessed as inhibition of [3H]GABA uptake by liquid scintillation method.

Test [4] addresses T3, Sodium- and chloride-dependent betaine transporter (Homo sapiens, UniProt P48065).
T3 sequence (P48065 whole entry): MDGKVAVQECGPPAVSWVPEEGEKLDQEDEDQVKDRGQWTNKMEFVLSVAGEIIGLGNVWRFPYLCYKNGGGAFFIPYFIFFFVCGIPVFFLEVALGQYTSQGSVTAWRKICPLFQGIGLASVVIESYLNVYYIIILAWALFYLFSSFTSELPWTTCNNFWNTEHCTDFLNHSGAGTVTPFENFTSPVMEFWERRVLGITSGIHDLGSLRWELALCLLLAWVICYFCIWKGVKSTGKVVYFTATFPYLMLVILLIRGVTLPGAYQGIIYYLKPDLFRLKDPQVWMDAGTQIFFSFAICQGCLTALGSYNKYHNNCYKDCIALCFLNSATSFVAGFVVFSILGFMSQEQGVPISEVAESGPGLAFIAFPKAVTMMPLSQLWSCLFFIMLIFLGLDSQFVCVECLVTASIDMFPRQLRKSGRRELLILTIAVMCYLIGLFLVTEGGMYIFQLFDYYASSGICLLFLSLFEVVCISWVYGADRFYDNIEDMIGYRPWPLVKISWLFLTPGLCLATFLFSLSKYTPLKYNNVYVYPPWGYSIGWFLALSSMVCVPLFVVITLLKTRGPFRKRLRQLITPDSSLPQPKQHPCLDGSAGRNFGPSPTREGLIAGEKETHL
Kind of test: Inhibition of human BGT1 expressed in tsA201 cells assessed as inhibition of [3H]GABA uptake by liquid scintillation method.

Chain of Sodium- and chloride-dependent GABA transporter 1 (P30531 whole entry): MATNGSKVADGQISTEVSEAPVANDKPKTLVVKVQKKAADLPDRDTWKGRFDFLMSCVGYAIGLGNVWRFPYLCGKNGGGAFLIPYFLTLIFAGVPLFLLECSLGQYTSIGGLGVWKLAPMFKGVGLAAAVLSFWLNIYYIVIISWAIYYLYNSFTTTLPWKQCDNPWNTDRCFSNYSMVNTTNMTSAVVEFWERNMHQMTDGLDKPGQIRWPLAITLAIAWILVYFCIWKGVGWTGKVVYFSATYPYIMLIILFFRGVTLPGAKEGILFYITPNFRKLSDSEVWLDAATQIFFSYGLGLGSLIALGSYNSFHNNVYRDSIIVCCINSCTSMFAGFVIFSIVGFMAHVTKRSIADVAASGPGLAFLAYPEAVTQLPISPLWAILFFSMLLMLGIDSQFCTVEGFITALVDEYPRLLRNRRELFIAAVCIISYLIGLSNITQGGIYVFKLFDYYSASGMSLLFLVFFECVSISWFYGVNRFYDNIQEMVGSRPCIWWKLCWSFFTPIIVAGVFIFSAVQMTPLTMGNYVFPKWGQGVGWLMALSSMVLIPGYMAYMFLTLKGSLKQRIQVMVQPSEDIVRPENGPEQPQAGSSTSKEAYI

In the case of `NCC(N)C(=O)O` (centres undefined), the IC50 – broadly, the concentration needed to halve the response being measured – was greater than 1000 µM in test [1], 39.8 µM in test [2], 31.6 µM in test [3] and 631 µM in test [4].
